Assay results: US6413975B1, “Purine derivatives having phosphodiesterase iv inhibition activity” (Euro-Celtique, S.A., priority 1999, dated 2002)
Where a name gives a salt, the structure may show the parent alone.

What follows are molecules tested on Type IV PDE (assay: PDE IV inhibition: hydrolysis of [3H]-cyclic AMP by isolated Type IV PDE). Details: adenines, Table 4; cyclic AMP 0.2 μM; read-out: calc PDE IV IC50.
Format: biochemical, bovine
Method: The Type IV PDE is isolated from bovine tracheal smooth muscle using a procedure similar to that previously described by Silver, P. J., Hamel, L. T., Perrone, M. H. Bentley, R. G. Bushover, C. R., Evans, D. B.: Eur. J. Pharmacol. 150:85,1988.(1). Briefly, smooth muscle from bovine trachea is minced and homogenized using a polytron in 10 volumes of an extraction buffer containinhg 10 mM Tris-acetate (pH 7.5), 2 mM magnesium chloride, 1 mM dithiothreitol and 2,000 units/ml of aprotinin. This and all subsequent procedures are performed at 0-4° C. The homogenate is sonicated and then centrifiged at 48,000×g for 30 minutes. The resulting supernatant is applied to a DEAE Trisacryl M column previously equilibrated with sodium acetate and dithiothreitol. After applications of the sample, the column is washed with sodium acetate/dithiothreitol, after which the different forms of PDE are eluted from the column using a linear Tris-HCl/NaCl gradient. Fractions containing Type IV PDE are collected, dialyzed and concentrated to 14% of the original volume. The concentrated fractions are diluted to 50% with ethylene glycol and stored at -20° C.
Enzyme activity is assessed by measuring the hydrolysis of [^3H]-cyclic AMP, as described by Thompson, W. J., Teraski, W. L., Epstein, P. N., Strada, S. J.: Adv. Cyclic Nucleotide Res. 10:69, 1979. The cyclic AMP concentration used in this assay is 0.2 μM, which approximates the Km value. Protein concentration is adjusted to ensure that no more than 15% of the available substrate is hydrolyzed during the incubation period.
All test compounds are dissolved in dimethyl sulfoxide (final concentration of 2.5%). This concentration of dimethyl sulfoxide inhibits enzyme activity by approximately 10%.

| IC50 [µM] | SMILES |
| --- | --- |
| 66.4 | CCCCn1cnc(NCC)c2ncnc1-2 [3-butyl-6-ethylamino-3H-purine hydrochloride] |
| 5.99 | CCCCn1cnc(NCC)c2nc(C3CC3)nc1-2 [3-butyl-8-cyclopropyl-6-ethylamino-3H-purine hydrochloride] |
| 33 | CCNc1ncn(CC2CCCCC2)c2ncnc1-2 [3-cyclohexylmethyl-6-ethylamino-3H-purine hydrochloride] |
| 3.78 | CCNc1ncn(CC2CCCCC2)c2nc(C3CC3)nc1-2 [3-cyclohexylmethyl-8-cyclopropyl-6-ethylamino-3H-purine hydrochloride] |
| 12.7 | CCNc1ncn(CC2CC2)c2nc(C(C)C)nc1-2 [3-cyclopropylmethyl-8-isopropyl-6-ethylamino-3H-purine hydrochloride] |

Same assay, conditions: adenines, Table 7; read-out: calc PDE IV IC50

| SMILES | IC50 [µM] |
| --- | --- |
| CCNc1ncn(Cc2ccc(OC)c(OC3CCC(O)C3)c2)c2nc(C(C)C)nc1-2 (stereo not shown) [3-(3-((3-hydroxy)cyclopentyloxy)-4-methoxybenzyl)-6-ethylami] [3-(3-((3-hydroxy)cyclopentyloxy)-4-methoxybenzyl)-6-ethylamino-8-isopropyl-3H-purine] | 1.36 |
| CCNc1ncn(Cc2ccc(OC)c(OCc3ccccc3)c2)c2nc(C(C)C)nc1-2 [3-(3-benzyloxy-4-methoxy-benzyl)-6-ethylamino-8-isopropyl-3H-purine] | 1.3 |
| CCNc1ncn(Cc2cccc(Cl)c2)c2nc(C(C)C)nc1-2 [3-(3-chlorobenzyl)-6-ethylamino-8-isopropyl-3H-purine] | 2.15 |
| COc1ccc(CNc2ncn(Cc3ccc(OC)c(OC4CCCC4)c3)c3nc(C(C)C)nc2-3)cc1OC1CCCC1 [3-(3-cyclopentyloxy-4-methoxybenzyl)-6-(3-cyclopentyloxy-4-methoxybenzylamino)-8-isopropyl-3H-purine] | 1.14 |
| COc1ccc(Cn2cnc(NCC(F)(F)F)c3nc(C(C)C)nc2-3)cc1OC1CCCC1 [3-(3-cyclopentyloxy-4-methoxybenzyl)-6-((2,2,2-trifluoroethyl)amino)-8-isopropyl-3H-purine] | 12.8 |
| CCN(C(=O)c1ccccc1)c1ncn(Cc2ccc(OC)c(OC3CCCC3)c2)c2nc(C(C)C)nc1-2 [3-(3-cyclopentyloxy-4-methoxybenzyl)-6-(N-benzoyl-N-ethylamino)-8-isopropyl-3H-purine] | 1.43 |
| COc1ccc(Cn2cnc(N)c3nc(C(C)C)nc2-3)cc1OC1CCCC1 [3-(3-cyclopentyloxy-4-methoxybenzyl)-6-amino-8-isopropyl-3H-purine] | 0.82 |
| COc1ccc(Cn2cnc(N(C)C)c3nc(C(C)C)nc2-3)cc1OC1CCCC1 [3-(3-cyclopentyloxy-4-methoxybenzyl)-6-dimethylamino-8-isopropyl-3H-purine] | 19.3 |
| CCNc1nc(NCC)n(Cc2ccc(Cl)cc2)c2nc(C(C)C)nc1-2 [3-(4-chlorobenzyl)-2,6-di(ethylamino)-8-isopropyl-3H-purine] | 11.2 |
| CC(C)c1nc2c(NC3(O)CCCC3)ncn(Cc3ccc(Cl)cc3)c-2n1 [3-(4-chlorobenzyl)-6-((1-hydroxy)cyclopentylamino)-8-isopropyl-3H-purine] | 4.48 |
| CC(C)c1nc2c(NC3CCCC3)ncn(Cc3ccc(Cl)cc3)c-2n1 [3-(4-chlorobenzyl)-6-cyclopentylamino-8-isopropyl-3H-purine] | 4.7 |
| CC(C)c1nc2c(NC3CC3)ncn(Cc3ccc(Cl)cc3)c-2n1 [3-(4-chlorobenzyl)-6-cyclopropylamino-8-isopropyl-3H-purine] | 1.69 |
| CCNc1ncn(-c2ccc(Cl)cc2)c2nc(C(C)C)nc1-2 [3-(4-chlorophenyl)-6-ethylamino-8-isopropyl-3H-purine] | 6.5 |

Second part, the molecule after the results:

| IC50 [µM] | SMILES |
| --- | --- |
| 2.25 | COc1ccc(Cn2cncc3nc(C(C)(C)O)nc2-3)cc1OC1CCC(O)C1 (stereo not shown) [3-[3-(3-Hydroxy-cyclopentyloxy)-4-methoxy-benzyl]-8-(1-hydroxy-1-methyl-ethyl)-3H-purine] |
| 2.28 | CCNc1ncn(Cc2ccc(OC)c(OC3CCC(O)C3)c2)c2nc(C(C)C)nc1-2 (stereo not shown) [3-[3-(3-hydroxy)cyclopentyloxy)]-4-methoxy)benzyl)-6-ethylam] [3-[3-(3-hydroxy)cyclopentyloxy)]-4-methoxy)benzyl)-6-ethylamino-8-isopropyl-3H-purine] |
| 8.28 | CCNc1ncn(Cc2ccc(OC)c(OC3CCCCC3)c2)c2nc(C(C)C)nc1-2 [3-[3-Cyclohexanyl-4-oxy-4-methoxy-benzyl]-6-ethylamino-8-isopropyl-3H-purine] |
| 0.27 | C=C(C)c1nc2c(NCC)ncn(Cc3ccc(OC)c(OC4CCCC4)c3)c-2n1 [3-[(3-cyclopentyloxy-4-methoxy)benzyl]-6-ethylamino-8-(1-methyl-ethenyl)-3H-purine] |
| 0.85 | CCNc1ncn(Cc2ccc(OC)c(OC3CCCC3)c2)c2nc(C(C)(C)O)nc1-2 [3-[(3-cyclopentyloxy-4-methoxy)benzyl]-6-ethylamino-8-[(1-hy] [3-[(3-cyclopentyloxy-4-methoxy)benzyl]-6-ethylamino-8-[(1-hydroxy-1-methyl)ethyl]-3H-purine] |
| 3.1 | CCNc1ncn(Cc2ccc(OC)c(OC3CCCC3)c2)c2nc(C(C)(C)O)nc1-2 [3-[(3-cyclopentyloxy-4-methoxy)benzyl]-8-[(1-methyl-1-hydrox] [3-[(3-cyclopentyloxy-4-methoxy)benzyl]-8-[(1-methyl-1-hydroxy)ethyl]-6-ethylamino-3H-purine] |

Same assay, conditions: dithioxanthines, Table 5; read-out: IC50 PDE IV

| SMILES | IC50 [µM] |
| --- | --- |
| CCCn1c(=S)[nH]c(=S)c2[nH]c(C(C)C)nc21 [3,7-dihydro-8-isopropyl-3-propyl-2,6-dithio-1H-purine-2,6-dione] | 3.5 |
| CC(C)c1nc2c([nH]1)c(=S)[nH]c(=S)n2Cc1ccccc1Cl [3-(2-chlorobenzyl)-3,7-dihydro-8-isopropyl-2,6-dithio-1H-purine-2,6-dione] | 7.74 |
| COc1ccc(Cn2c(=S)[nH]c(=S)c3[nH]cnc32)cc1OC1CCCC1 [3-(3-cyclopentyloxy-4-methoxybenzyl)-3,7-dihydro-2,6-dithio-1H-purine-2,6-dione] | 16.2 |
| CC(C)c1nc2c([nH]1)c(=S)[nH]c(=S)n2Cc1ccc(Cl)cc1 [3-(4-chlorobenzyl)-8-isopropyl)-3,7 dihydro-2,6-dithio-3,7-purine-2,6-dione] | 2.4 |

The remaining lines, values ahead:

| IC50 [µM] | SMILES |
| --- | --- |
| 38.5 | S=c1[nH]c(=S)n(Cc2ccccc2)c2nc[nH]c12 [3-benzyl-3,7-dihydro-2,6-dithio-1H-purine-2,6-dione] |
| 5.93 | CCCCn1c(=S)[nH]c(=S)c2[nH]c(C(C)C)nc21 [3-butyl-3,7-dihydro-8-(1-methylethyl)-2,6-dithio-1H-purine-2,6-dione] |
| 9.43 | CCCCn1c(=S)[nH]c(=S)c2[nH]c(C3CC3)nc21 [3-butyl-8-cyclopropyl-3,7-dihydro-2,6-dithio-1H-purine-2,6-dione] |
| 3.03 | S=c1[nH]c(=S)n(CC2CCCCC2)c2nc(C3CC3)[nH]c12 [3-cyclohexylmethyl-8-cyclopropyl-3,7-dihydro-2,6-dithio-1H-purine-2,6-dione] |
| 4.1 | CCn1c(=S)[nH]c(=S)c2[nH]c(C(C)C)nc21 [3-ethyl-3,7-dihydro-8-isopropyl-2,6-dithio-1H-purine-2,6-dione] |

Same assay, conditions: read-out: PDE IV I50

| IC50 [µM] | SMILES |
| --- | --- |
| 2.15 | CCNc1ncn(Cc2ccc(OC)c(OC3CCCC3)c2)c2ncnc1-2 [3-(3-Cyclopentyloxy-4-methoxybenzyl)-6-ethylamino-3H-purine Hydrochloride] |
| 2.27 | CC(C)c1nc2c([nH]1)c(=S)[nH]c(=S)n2Cc1ccc(Cl)cc1 [3-(4-chlorobenzyl)-8-isopropyl)-3,7 dihydro-2,6-dithio-3,7-purine-2,6-dione] |
| 3.4 | CC(C)c1nc2c([nH]1)c(=S)[nH]c(=S)n2Cc1ccccc1 [3-benzyl-3,7-dihydro-8-(1-methylethyl)-2,6-dithio-1H-purine-2,6-dione] |

Same assay, conditions: thioisoguanines, Table 2; cyclic AMP 0.2 μM; read-out: Calc IC50 PDE IV

| IC50 [µM] | SMILES |
| --- | --- |
| 114 | CC(C)c1nc2c([nH]1)c(NC1CCCC1)nc(=S)n2Cc1ccc(Cl)cc1 [3-(4-chlorobenzyl)-6-cyclopentylamino-3,7-dihydro-8-isopropyl-2-thio-2H-purin-2-one] |
| 23.9 | CCCNc1nc(=S)n(CC2CC2)c2nc(C(C)C)[nH]c12 [3-(cyclopropylmethyl)-3,7-dihydro-8-(1-methyl-ethyl)-6-propylamino-2-thio-2H-purin-2-one hydrochloride] |
| 28.4 | CCNc1nc(=S)n(Cc2ccccc2)c2nc(C(C)C)[nH]c12 [3-benzyl-6-ethylamino-3,7-dihydro-8-(1-methyl-ethyl)-2-thio-2H-purin-2-one] |
| 34.9 | CCCCn1c(=S)nc(NCC)c2[nH]c(C3CC3)nc21 [3-butyl-8-cyclopropyl-3,7-dihydro-6-ethylamino-2-thio-2H-purin-2-one] |
| 15.2 | CCNc1nc(=S)n(CC2CCCCC2)c2nc(C3CC3)[nH]c12 [3-cyclohexylmethyl-8-cyclopropyl-3,7-dihydro-6-ethylamino-2-thio-2H-purin-2-one] |
| 9.4 | CCn1c(=S)nc(NC2CCCC2)c2[nH]c(C(C)C)nc21 [3-ethyl-6-cyclopentylamino-3,7-dihydro-8-isopropyl-2-thio-2H-purin-2-one] |
| 0.19 | CCn1c(=S)nc(NC2CCCC2)c2[nH]c(C3CC3)nc21 [3-ethyl-6-cyclopentylamino-8-cyclopropyl-3,7-dihydro-2-thio-2H-purin-2-one] |
